Test results reported in US20150368203A1, “PHARMACEUTICAL FORMULATIONS CONTAINING IPIDACRINE AND THEIR USE FOR THE TREATMENT OF DISORDERS OF POTENCY AND DISORDERS OF OTHER FORMS OF SEXUAL ACTIVITY” (Limited Liability Company "KONSORTSIUM-PIK", priority 2012, published 2015).

Experiments:
patients with dementia = details: patients in the treatment of Alzheimer's disease; cited from earlier work
hemigonadectomized rats = experiment: Sexual activity of hemigonadectomized rats (hypogonadal state model); type: in vivo, rat
Description: Evaluation of the effects of ipidacrine pharmaceutical formulation in rats with the reduced sexual activity caused by hemigonadectomy. The hemigonadectomy is similar to the pathological processes observed in the clinical picture and associated with the decrease in hormone production by the sex glands. The model of hypogonadal state in rats induced by the hemigonadectomy corresponds to the pathological processes observed in the clinical picture and associated with the decreased hormone production of the sex glands.
The study of the ipidacrine pharmacological activity was conducted in albino male rats. The following six groups of animals were formed: 1—intact, 2—treated with sildenafil, 3—galantamine, 4—ipidacrine, 5—gonadectomized, 6—control.
30 days before the start of the main study, the experiment was performed (3 times a week for 2 weeks), namely introduction of a receptive female to the male rat. The number of ejaculations was recorded. Those animals whose level of sexual activity was characterized by stable performance of 1-2 ejaculations during the period of the test were selected.
The selected male rats underwent the hemigonadectomy (at the right) performed under ether anesthesia. Then, during 7 and 14 days prior to the course administration of the drugs, daily testing of sexual activity of the hemigonadectomized animals was carried out. The latency period and the number of mounts, intromissions and ejaculations in different groups of the animals were considered.

[1] = test system: hypoactive male rats with spontaneously reduced sexual function; experiment: Sexual activity of initially hypoactive male rats with spontaneously reduced sexual function; type: in vivo, rat
Description: This model is associated with the clinical conditions of anorgasmia or delayed ejaculation in humans. According to the results of the five-fold testing of the intact animals, the groups of hypoactive male rats were formed. The criterion for selection was average number of ejaculations of less than 0.5 according to the results of the five-fold testing.
To assess the effect of ipidacrine on sexual function of rats with the reduced sexual activity, the groups of the animals with initially low manifestations of copulatory and ejaculatory components of behavior were formed. This model reflects the clinical conditions of anorgasmia and delayed ejaculation. The effect of the drug on the integral indicator of the sexual function (number of ejaculations) at a dose of 0.85 to 5.1 mg/kg when administered daily is shown in FIG. 3

[2] = test system: male rats exposed to chronic stress (electrical current); experiment: Sexual activity of male rats in the model of chronic stress caused by electrical current exposure; type: in vivo, rat
Method: The most appropriate model (in terms of the ease of implementation) is the model of psychogenic sexual dysfunction caused by exposure to physical factors (electrical current) in rats.
The pre-experiment with the animals was performed similar to that described in Example 2.
The two groups of the animals similar in the sexual activity level were formed: control (administration of distilled water), pharmaceutical formulation (on ipidacrine basis at a dose of 1.7 mg/kg). The animals of the control and experimental groups were daily exposed to current with a voltage of 30V for 30 min once a minute with an impulse with duration of 1 sec. The drug was administered 30 minutes before the stress, the testing was performed 60 min after the stress.

[3] = test system: ovariectomized, hypoestrogenic rats; details: introduction into the lateral ventricle in the brain; cited from earlier work

Structure (SMILES): COc1cc2c(cc1OC)C(=O)C(CC1CCN(Cc3ccccc3)CC1)C2 (stereo not shown) [donepezil]
- sexual behavior (side effect) (patients with dementia): increase in the sexual behavior

Structure (SMILES): Nc1c2c(nc3c1CCC3)CCCC2 [ipidacrine, Ipidacrine]
- level of the sexual activity (fluctuations due to external stressor effects) (hemigonadectomized rats; 1.7 mg/kg once daily for 7 days, hemigonadectomized rats): eliminates fluctuations in the level of the sexual activity
- time of maximum manifestation of the increase in sexual activity (hemigonadectomized rats; 5.1 mg/kg, 2 times a day for 14 days): 3 to 5 days
- time of maximum manifestation of the increase in sexual activity (hemigonadectomized rats; 0.85 to 1.7 mg/kg, 2 times a day for 14 days): 11 to 14 days
- sexual activity of the animals (hemigonadectomized rats; 0.85 to 5.1 mg/kg, 2 times a day for 14 days, hemigonadectomized rats): dose-dependent increase in the sexual activity
- average number of ejaculations in the group ([1]; 0.85 mg/kg daily): 0.6-0.8
- rate of occurrence of ejaculations ([1]; 0.85 mg/kg daily): 80%
- latency period of mounts and intromissions ([1]; 0.85 mg/kg daily, 7th to 14th day, versus background, trend level, similar changes in control): reduction of the latency period of mounts and intromissions
- time to renewal of sexual activity after the first ejaculation (on the average) ([1]; 0.85 mg/kg daily, some animals): 4 to 6 min
- sexual activity ([1]; 0.85 mg/kg daily, starting with the 2nd week): increase in the sexual activity
- number of animals able to ejaculate ([1]; 1.7 mg/kg): up to 80%
- effect on the sexual function ([1]; 1.7 mg/kg, 14 days): activating effect on the sexual function throughout the whole observation period
- reduction in the latency time of mounts and intromissions ([1]; 1.7 mg/kg, after the first administration): 2 to 4 fold
- ejaculatory component ([1]; 1.7 mg/kg, throughout the course of administration): increase of the ejaculatory component in comparison with the control
- efficacy in spontaneous sexual hypoactivity ([1]; 5.1 mg/kg): effective only when administered for 5 days
- manifestation of the sexual activity on subsequent administration ([1]; 5.1 mg/kg, after the first 5 days): negative effect on the manifestation of the sexual activity
- sexual activity (central motivational and ejaculatory components) ([1]; 5.1 mg/kg, first 5 days): increased the sexual activity in the animals during the first 5 days of observation
- values of indicators of sexual activity ([1]; 5.1 mg/kg, in 10, 14 days of the experiment): comparable to the control
- latency period of mounts ([1]; 5.1 mg/kg, in 3 days of observation, reduced from 33.0±5.35, p<0.05): 9.3 ± 1.93 s
- latency period of intromissions ([1]; 5.1 mg/kg, in 3 days of observation, reduced from 59.8 ±11.34, p<0.05): 10.5 ±1.76
- formation of sexual dysfunction ([2]; 1.7 mg/kg once a day prior to the stress): slower formation of sexual dysfunction
- parameters of activity in the initial period ([2]; 1.7 mg/kg, 1 to 3 days, versus group nonsusceptible to stress): comparable to the parameters in the group nonsusceptible to the stress
- frequency of ejaculations ([2]; 1.7 mg/kg, 3rd to 10th day of the experiment): 60-100%
- rate of renewal of activity after the first ejaculation ([2]; 1.7 mg/kg, 3rd to 10th day, versus stressed animals without treatment): higher rate of renewal of activity after the first ejaculation
- latency period of intromissions (7th day) and of intromissions and mounts (10th day) versus group without treatment ([2]; 1.7 mg/kg, 7th and 10th day): Significant differences from the group without treatment
- number of ejaculations ([2]; 1.7 mg/kg, 10th and 14th day of the 14 day exposure to stress): 0.4-0.6
- latency period of mounts and intromissions compared to animals nonsusceptible to stress ([2]; 1.7 mg/kg, starting from the 5th day): significant increase in the latency period of mounts and intromissions

Structure (SMILES): CNC(=O)Oc1ccc2c(c1)[C@]1(C)CCN(C)[C@@H]1N2C [eserine]
- lordosis [3]: increases the lordosis
